Values of other authors, collected in patent publication US7959947B2, “Film coating” (AstraZeneca AB, priority 2001, dated 2011).

Settings: 60° C.; according to data in Handbook of Pharmaceutical Excipients

## CCCCCCCCCCCCCCCCCCOC(=O)/C=C/C(=O)[O-].[Na+] [Sodium stearyl fumarate, sodium salt of 2-butenedioic monooctadecyl ester]
  Solubility in water: 0.005 gram per gram water
